US10681909B2, “Herbicidal triazoles” (FMC Corporation, priority 2014, dated 2020)

What was measured:
barnyardgrass [1] = assay: Test A preemergence; format: in vivo, Echinochloa crus-galli; details: 0 to 100 scale (0 no effect, 100 complete control)
Source text: (§1) Seeds of plant species selected from barnyardgrass (Echinochloa crus-galli), crabgrass, large (large crabgrass, Digitaria sanguinalis), kochia (Kochia scoparia), ragweed (common ragweed, Ambrosia elatior), foxtail, giant (giant foxtail, Setaria faberii), morningglory (Ipomoea spp.), pigweed (Amaranthus retroflexus), velvetleaf (Abutilon theophrasti), ryegrass, Italian (Italian ryegrass, Lolium multiflorum), wheat (Triticum aestivum), and corn (Zea mays) were planted into a blend of loam soil and sand and treated preemergence with a directed soil spray using test chemicals formulated in a non-phytotoxic solvent mixture which included a surfactant. At the same time, plants selected from these crop and weed species and also blackgrass (Alopecurus myosuroides), and galium (catchweed bedstraw, Galium aparine), were planted in pots containing the same blend of loam soil and sand and treated with postemergence applications of test chemicals formulated in the same manner. Plants ranged in height from 2 to 10 cm and were in the one- to two-leaf stage for the postemergence treatment. […] A dash (-) response means no test result.

kochia [2] = assay: Test A preemergence; format: in vivo, Kochia scoparia; details: 0 to 100 scale (0 no effect, 100 complete control)
Source text: (§2) Seeds of plant species selected from barnyardgrass (Echinochloa crus-galli), crabgrass, large (large crabgrass, Digitaria sanguinalis), kochia (Kochia scoparia), ragweed (common ragweed, Ambrosia elatior), foxtail, giant (giant foxtail, Setaria faberii), morningglory (Ipomoea spp.), pigweed (Amaranthus retroflexus), velvetleaf (Abutilon theophrasti), ryegrass, Italian (Italian ryegrass, Lolium multiflorum), wheat (Triticum aestivum), and corn (Zea mays) were planted into a blend of loam soil and sand and treated preemergence with a directed soil spray using test chemicals formulated in a non-phytotoxic solvent mixture which included a surfactant.
(§3) At the same time, plants selected from these crop and weed species and also blackgrass (Alopecurus myosuroides), and galium (catchweed bedstraw, Galium aparine), were planted in pots containing the same blend of loam soil and sand and treated with postemergence applications of test chemicals formulated in the same manner. Plants ranged in height from 2 to 10 cm and were in the one- to two-leaf stage for the postemergence treatment. Treated plants and untreated controls were maintained in a greenhouse for approximately 10 d, after which time all treated plants were compared to untreated controls and visually evaluated for injury. Plant response ratings, summarized in Table A, are based on a 0 to 100 scale where 0 is no effect and 100 is complete control. A dash (-) response means no test result.

ragweed [3] = assay: Test A preemergence; format: in vivo, Ambrosia elatior; details: 0 to 100 scale (0 no effect, 100 complete control)
Source text: as §2, §3

foxtail, giant [4] = assay: Test A preemergence; format: in vivo, Setaria faberii; details: 0 to 100 scale (0 no effect, 100 complete control)
Source text: as §1

pigweed [5] = assay: Test A preemergence; format: in vivo, Amaranthus retroflexus; details: 0 to 100 scale (0 no effect, 100 complete control)
Source text: as §1

ryegrass, Italian [6] = assay: Test A preemergence; format: in vivo, Lolium multiflorum; details: 0 to 100 scale (0 no effect, 100 complete control)
Source text: as §2, §3

barnyardgrass [7] = assay: Test A postemergence; format: in vivo, Echinochloa crus-galli; details: 0 to 100 scale (0 no effect, 100 complete control), approx. 10 d
Source text: as §1

kochia [8] = assay: Test A postemergence; format: in vivo, Kochia scoparia; details: 0 to 100 scale (0 no effect, 100 complete control), approx. 10 d
Source text: as §2, §3

ragweed [9] = assay: Test A postemergence; format: in vivo, Ambrosia elatior; details: 0 to 100 scale (0 no effect, 100 complete control), approx. 10 d
Source text: as §2, §3

foxtail, giant [10] = assay: Test A postemergence; format: in vivo, Setaria faberii; details: 0 to 100 scale (0 no effect, 100 complete control), approx. 10 d
Source text: as §1

pigweed [11] = assay: Test A postemergence; format: in vivo, Amaranthus retroflexus; details: 0 to 100 scale (0 no effect, 100 complete control), approx. 10 d
Source text: as §1

ryegrass, Italian [12] = assay: Test A postemergence; format: in vivo, Lolium multiflorum; details: 0 to 100 scale (0 no effect, 100 complete control), approx. 10 d
Source text: as §2, §3

wheat = assay: Test A postemergence; format: in vivo, Triticum aestivum; details: 0 to 100 scale (0 no effect, 100 complete control), approx. 10 d
Source text: as §1

corn = assay: Test A postemergence; format: in vivo, Zea mays; details: 0 to 100 scale (0 no effect, 100 complete control), approx. 10 d
Source text: as §1

blackgrass = assay: Test A postemergence; format: in vivo, Alopecurus myosuroides; details: 0 to 100 scale (0 no effect, 100 complete control), approx. 10 d
Source text: as §2, §3

galium = assay: Test A postemergence; format: in vivo, Galium aparine; details: 0 to 100 scale (0 no effect, 100 complete control), approx. 10 d
Source text: as §2, §3

| SMILES | Plant response rating, Barnyardgrass (barnyardgrass [1]; 31 g ai/ha) | Plant response rating, Barnyardgrass (barnyardgrass [1]; 125 g ai/ha) | Plant response rating, Kochia (kochia [2]; 31 g ai/ha) | Plant response rating, Kochia (kochia [2]; 125 g ai/ha) | Plant response rating, Ragweed (ragweed [3]; 31 g ai/ha) | Plant response rating, Ragweed (ragweed [3]; 125 g ai/ha) | Plant response rating, Foxtail, Giant (foxtail, giant [4]; 31 g ai/ha) | Plant response rating, Foxtail, Giant (foxtail, giant [4]; 125 g ai/ha) | Plant response rating, Pigweed (pigweed [5]; 31 g ai/ha) | Plant response rating, Pigweed (pigweed [5]; 125 g ai/ha) | Plant response rating, Ryegrass, Italian (ryegrass, Italian [6]; 31 g ai/ha) | Plant response rating, Ryegrass, Italian (ryegrass, Italian [6]; 125 g ai/ha) | Plant response rating, Barnyardgrass (barnyardgrass [7]; 31 g ai/ha) | Plant response rating, Barnyardgrass (barnyardgrass [7]; 125 g ai/ha) | Plant response rating, Kochia (kochia [8]; 31 g ai/ha) | Plant response rating, Kochia (kochia [8]; 125 g ai/ha) | Plant response rating, Ragweed (ragweed [9]; 31 g ai/ha) | Plant response rating, Ragweed (ragweed [9]; 125 g ai/ha) | Plant response rating, Foxtail, Giant (foxtail, giant [10]; 31 g ai/ha) | Plant response rating, Foxtail, Giant (foxtail, giant [10]; 125 g ai/ha) | also measured |
| --- | --- | --- | --- | --- | --- | --- | --- | --- | --- | --- | --- | --- | --- | --- | --- | --- | --- | --- | --- | --- | --- |
| Cc1nc(-c2ccc(Br)cc2)nn1Cc1ccnc(C(F)(F)F)c1 [Compound 36] | 0 | 60 | 60 | 90 | 0 | 20 | 20 | 90 | 90 | 90 | 0 | 10 | 0 | 20 | 70 | 90 | 0 | 30 | 20 | 70 | Plant response rating, Pigweed (pigweed [11]; 31 g ai/ha): 90; Plant response rating, Pigweed (pigweed [11]; 125 g ai/ha): 100; Plant response rating, Ryegrass, Italian (ryegrass, Italian [12]; 31 g ai/ha): 0; Plant response rating, Ryegrass, Italian (ryegrass, Italian [12]; 125 g ai/ha): 0; Plant response rating, Wheat (wheat; 31 g ai/ha): 0; Plant response rating, Wheat (wheat; 125 g ai/ha): 10; Plant response rating, Corn (corn; 31 g ai/ha): 20; Plant response rating, Corn (corn; 125 g ai/ha): 30; Plant response rating, Blackgrass (blackgrass; 31 g ai/ha): 10; Plant response rating, Blackgrass (blackgrass; 125 g ai/ha): 30; Plant response rating, Galium (galium; 31 g ai/ha): 50; Plant response rating, Galium (galium; 125 g ai/ha): 90 |
| FC(F)(F)COc1nc(-c2ccc(C(F)(F)F)cc2)nn1Cc1ccnc(C(F)(F)F)c1 [Compound 34] | 30 | 100 | 20 | 90 | 0 | 30 | 100 | 100 | 100 | 100 | 0 | 90 | 20 | 70 | 70 | 90 | 20 | 50 | 20 | 90 | Plant response rating, Pigweed (pigweed [11]; 31 g ai/ha): 100; Plant response rating, Pigweed (pigweed [11]; 125 g ai/ha): 100; Plant response rating, Ryegrass, Italian (ryegrass, Italian [12]; 31 g ai/ha): 0; Plant response rating, Ryegrass, Italian (ryegrass, Italian [12]; 125 g ai/ha): 20; Plant response rating, Wheat (wheat; 31 g ai/ha): 30; Plant response rating, Wheat (wheat; 125 g ai/ha): 50; Plant response rating, Corn (corn; 31 g ai/ha): 20; Plant response rating, Corn (corn; 125 g ai/ha): 20; Plant response rating, Blackgrass (blackgrass; 31 g ai/ha): 20; Plant response rating, Blackgrass (blackgrass; 125 g ai/ha): 50; Plant response rating, Galium (galium; 31 g ai/ha): 30; Plant response rating, Galium (galium; 125 g ai/ha): 90 |
| CCCOc1nc(-c2ccc(C(F)(F)F)cc2)nn1Cc1ccnc(C(F)(F)F)c1 [Compound 41] | 30 | 40 | 30 | 60 | 20 | 30 | 70 | 90 | 90 | 90 | 20 | 40 | 30 | 40 | 70 | 90 | 50 | 70 | 30 | 50 | Plant response rating, Pigweed (pigweed [11]; 31 g ai/ha): 80; Plant response rating, Pigweed (pigweed [11]; 125 g ai/ha): 90; Plant response rating, Ryegrass, Italian (ryegrass, Italian [12]; 31 g ai/ha): 20; Plant response rating, Ryegrass, Italian (ryegrass, Italian [12]; 125 g ai/ha): 30; Plant response rating, Wheat (wheat; 31 g ai/ha): 0; Plant response rating, Wheat (wheat; 125 g ai/ha): 20; Plant response rating, Corn (corn; 31 g ai/ha): 20; Plant response rating, Corn (corn; 125 g ai/ha): 30; Plant response rating, Blackgrass (blackgrass; 31 g ai/ha): 20; Plant response rating, Blackgrass (blackgrass; 125 g ai/ha): 30; Plant response rating, Galium (galium; 31 g ai/ha): 60; Plant response rating, Galium (galium; 125 g ai/ha): 90 |
| Cc1nc(-c2ccc(F)cc2)nn1Cc1ccnc(C(F)(F)F)c1 [Compound 38] | 0 | 80 | 30 | 100 | 0 | 20 | 20 | 100 | 90 | 100 | 0 | 10 | 0 | 20 | 70 | 90 | 0 | 30 | 20 | 80 | Plant response rating, Pigweed (pigweed [11]; 31 g ai/ha): 80; Plant response rating, Pigweed (pigweed [11]; 125 g ai/ha): 90; Plant response rating, Ryegrass, Italian (ryegrass, Italian [12]; 31 g ai/ha): 0; Plant response rating, Ryegrass, Italian (ryegrass, Italian [12]; 125 g ai/ha): 0; Plant response rating, Wheat (wheat; 31 g ai/ha): 0; Plant response rating, Wheat (wheat; 125 g ai/ha): 10; Plant response rating, Corn (corn; 31 g ai/ha): 10; Plant response rating, Corn (corn; 125 g ai/ha): 30; Plant response rating, Blackgrass (blackgrass; 31 g ai/ha): 10; Plant response rating, Blackgrass (blackgrass; 125 g ai/ha): 40; Plant response rating, Galium (galium; 31 g ai/ha): 30; Plant response rating, Galium (galium; 125 g ai/ha): 90 |
